Columns and labels:
Hepatitis C virus [1] = test: Inhibition of Hepatitis C virus subtype 1b NS5B activity assessed as inhibition of poly(A)n.oligo(dT)12-18-directed incorporation of [3H]-UTP into […] after 45 mins
Hepatitis C virus [2] = test: Antiviral activity against Hepatitis C virus subtype 1b infected in human Huh7 cells by replicon assay; format: functional, organism-based, Hepacivirus hominis; settings: genotype 1b, Huh-7
[3] = Therapeutic index, ratio of CC50 for human HuH cells to EC50 for Hepatitis C virus subtype 1b; format: cell-based; settings: read-out: Ratio CC50/EC50
Hepatitis C virus [4] = test: Antiviral activity against Hepatitis C virus subtype 1b harboring NS5B P495A mutant infected in human Huh7 cells by replicon assay; format: functional, organism-based, Hepacivirus hominis; settings: genotype 1b, Huh-7

Row | SMILES | IC50 (Hepatitis C virus [1]) [nM] | EC50 (Hepatitis C virus [2]) [nM] | selectivity ratio [3] | EC50 (Hepatitis C virus [4]) [nM]
1 | CNC(=O)c1ccc(-c2ccc(Cl)cc2)c(COc2ccc(-c3nc(/C=C(\C)C(=O)O)cn3C3CCCCC3)cc2)c1 | 1620 |  |  | 
2 | CNC(=O)c1ccc(-c2ccc(Cl)cc2)c(COc2ccc(-c3nc4cc(C(=O)O)ccc4n3C3CCCCC3)cc2)c1 | 640 | 300 |  | 
3 | C/C(=C\c1nn(C2CCCCC2)c(-c2ccc(OCc3cc(C(=O)N4CCC(O)CC4)ccc3-c3ccc(Cl)cc3)cc2)c1Br)C(=O)O | 650 | 700 |  | 
4 | CNC(=O)c1ccc(-c2ccc(C(C)=O)s2)c(COc2ccc(-c3cc(/C=C(\C)C(=O)O)nn3C3CCCCC3)cc2)c1 | 2290 |  |  | 
5 | C/C(=C\c1cc(-c2ccc(OCc3cc(C(=O)N4CCC(O)CC4)ccc3-c3ccc(C#N)cc3)cc2)n(C2CCCCC2)n1)C(=O)O | 340 | 400 | > 60 | 4000
6 | C/C(=C\c1cc(-c2ccc(OCc3cc(C(=O)N4CCC(O)CC4)ccc3-c3ccc(Cl)cc3)cc2)n(C2CCCCC2)n1)C(=O)O | 440 |  |  | 
7 | CNC(=O)c1ccc(-c2ccc(C#N)cc2)c(COc2ccc(-c3cc(/C=C(\C)C(=O)O)nn3C3CCCCC3)cc2)c1 | 790 |  |  | 
8 | CNC(=O)c1ccc(-c2ccc(Cl)cc2)c(COc2ccc(-c3cc(/C=C(\C)C(=O)O)nn3C3CCCCC3)cc2)c1 | 380 |  |  | 
9 | CC(=O)c1ccc(-c2ccc(C(=O)N3CCOCC3)cc2COc2ccc(-c3cc(/C=C(\C)C(=O)O)nn3C3CCCCC3)cc2)s1 | 5200 |  |  | 
10 | CNC(=O)c1ccc(-c2ccc(Cl)cc2)c(COc2ccc(-n3nc(/C=C(\C)C(=O)O)cc3C3CCCCC3)cc2)c1 | 4030 |  |  | 
11 | C/C(=C\c1cc(-c2ccc(OCc3cc(C(=O)N(C)C)ccc3-c3ccc(C#N)cc3)cc2)n(C2CCCCC2)n1)C(=O)O | 820 |  |  | 
12 | C/C(=C\c1cc(-c2ccc(OCc3cc(C(=O)NCCO)ccc3-c3ccc(Cl)cc3)cc2)n(C2CCCCC2)n1)C(=O)O | 1030 |  |  | 
13 | C/C(=C\c1cc(-c2ccc(OCc3cc(C(=O)N(C)C)ccc3-c3ccc(Cl)cc3)cc2)n(C2CCCCC2)n1)C(=O)O | 460 | 1900 |  | 
14 | CC(=O)c1ccc(-c2ccc(C(=O)N(C)C)cc2COc2ccc(-c3cc(/C=C(\C)C(=O)O)nn3C3CCCCC3)cc2)s1 | 2700 |  |  | 
